Assay results reported in ChEMBL document CHEMBL5055633, “Amphipathic Barbiturates as Mimics of Antimicrobial Peptides and the Marine Natural Products Eusynstyelamides with Activity against Multi-resistant Clinical Isolates” (J Med Chem, 2021).
Active and inactive are the calls of the source. The calls are words filed in the database; no cut-off is given here.

Tests used:
Escherichia coli [1] = assay: Antimicrobial activity against imipenem-type carbapenemase-26 producing Escherichia coli 50857972 assessed as reduction in bacterial growth incubated for 48 hrs by microdilution method; type: functional
[2] = Antimicrobial activity against carbapenemase producing Klebsiella pneumoniae K47-25 assessed as reduction in bacterial growth incubated for 48 hrs by microdilution method; type: functional
Enterococcus faecium [3] = assay: Antimicrobial activity against extended spectrum-lactamase-carbapenemas producing Enterococcus faecium strain 50758899 assessed as reduction in bacterial growth incubated for 48 hrs by microdilution method; type: functional
Acinetobacter baumannii [4] = assay: Antimicrobial activity against oxacillinase-24 producing Acinetobacter baumannii K55-13 assessed as reduction in bacterial growth incubated for 48 hrs by microdilution method; type: functional
Escherichia coli [5] = assay: Membrano-lytic effect in Escherichia coli HB101 assessed as decrease in bacterial viability at 3.1 ug/ml by luciferase based real-time membrane integrity assay; type: functional, organism-based; conditions: dose 3.1 µg/ml
Escherichia coli [6] = assay: Membrano-lytic effect in Escherichia coli HB101 assessed as decrease in bacterial viability at 6.3 ug/ml by luciferase based real-time membrane integrity assay; type: functional, organism-based; conditions: dose 6.3 µg/ml
Enterococcus faecium [7] = assay: Antimicrobial activity against extended spectrum-lactamase-carbapenemas producing Enterococcus faecium strain TUH.50-22 assessed as reduction in bacterial growth incubated for 48 hrs by microdilution method; type: functional
Acinetobacter baumannii [8] = assay: Antimicrobial activity against oxacillinase-58 producing Acinetobacter baumannii K12-21 assessed as reduction in bacterial growth incubated for 48 hrs by microdilution method; type: functional
Escherichia coli [9] = assay: Antimicrobial activity against New Delhi metallo-beta lactamase-1 producing Escherichia coli 50739822 assessed as reduction in bacterial growth incubated for 48 hrs by microdilution method; type: functional
Staphylococcus aureus [10] = assay: Antimicrobial activity against extended spectrum-lactamase-carbapenemas producing Staphylococcus aureus strain WIS assessed as reduction in bacterial growth incubated for 48 hrs by microdilution method; type: functional
[11] = Antimicrobial activity against verona integron-encoded metallo-beta-lactamase -1 producing Klebsiella pneumoniae 50667959 assessed as reduction in bacterial growth incubated for 48 hrs by microdilution method; type: functional
Pseudomonas aeruginosa [12] = assay: Antimicrobial activity against Pseudomonas aeruginosa PAO1 assessed as reduction in bacterial growth incubated for 48 hrs by microdilution susceptibility test; type: functional
Escherichia coli [13] = assay: Antimicrobial activity against oxacillinase-producing Escherichia coli 50579417 assessed as reduction in bacterial growth incubated for 48 hrs by microdilution method; type: functional
Acinetobacter baumannii [14] = assay: Antimicrobial activity against oxacillinase-23 producing Acinetobacter baumannii K63-58 assessed as reduction in bacterial growth incubated for 48 hrs by microdilution method; type: functional
Enterococcus faecium [15] = assay: Antimicrobial activity against extended spectrum-lactamase-carbapenemas producing Enterococcus faecium strain 50901530 assessed as reduction in bacterial growth incubated for 48 hrs by microdilution method; type: functional
Pseudomonas aeruginosa [16] = assay: Antimicrobial activity against verona integron-encoded metallo-beta-lactamase-2 producing Pseudomonas aeruginosa K34-7 assessed as reduction in bacterial growth incubated for 48 hrs by microdilution method; type: functional
[17] = system: Corynebacterium glutamicum; assay: Antimicrobial activity against Corynebacterium glutamicum ATCC 13032 assessed as reduction in bacterial growth incubated for 48 hrs by microdilution susceptibility test; type: functional
Pseudomonas aeruginosa [18] = assay: Antimicrobial activity against imipenem-type carbapenemase-14 producing Pseudomonas aeruginosa K44-24 assessed as reduction in bacterial growth incubated for 48 hrs by microdilution method; type: functional
Escherichia coli [19] = assay: Antimicrobial activity against Escherichia coli ATCC 25922 assessed as reduction in bacterial growth incubated for 48 hrs by microdilution susceptibility test; type: functional
Staphylococcus aureus [20] = assay: Antimicrobial activity against extended spectrum-lactamase-carbapenemas producing Staphylococcus aureus NCTC 10442 assessed as reduction in bacterial growth incubated for 48 hrs by microdilution method; type: functional
Streptococcus pneumoniae [21] = assay: Antibacterial activity against in […] 168 assessed as decrease in bacterial viability at 3.1 ug/ml by cell viability assay; type: functional, organism-based; conditions: dose 3.1 µg/ml
Staphylococcus aureus [22] = assay: Antimicrobial activity against extended spectrum-lactamase-carbapenemas producing Staphylococcus aureus strain 85/2082 assessed as reduction in bacterial growth incubated for 48 hrs by microdilution method; type: functional
[23] = Antimicrobial activity against New Delhi metallo-beta lactamase-1 and oxacillinase -181 producing Klebsiella pneumoniae 50531633 assessed as reduction in bacterial growth incubated for 48 hrs by microdilution method; type: functional
[24] = Antimicrobial activity against oxacillinase-245 producing Klebsiella pneumoniae 50625602 assessed as reduction in bacterial growth incubated for 48 hrs by microdilution method; type: functional
Streptococcus pneumoniae [25] = assay: Antibacterial activity against in […] 168 assessed as decrease in bacterial viability at 6.3 ug/ml by cell viability assay; type: functional, organism-based; conditions: dose 6.3 µg/ml
HepG2 = assay: Cytotoxicity against human HepG2 cells assessed as reduction in cell viability incubated for 24 hrs by colorimetric tetrazolium assay; type: functional, cell-based; conditions: HepG2, 24 h
Escherichia coli [26] = assay: Antibacterial activity against Escherichia coli HB101 assessed as decrease in bacterial viability at 6.3 ug/ml by cell viability assay; type: functional, organism-based; conditions: dose 6.3 µg/ml
Acinetobacter baumannii [27] = assay: Antimicrobial activity against oxacillinase-23 producing Acinetobacter baumannii K44-35 assessed as reduction in bacterial growth incubated for 48 hrs by microdilution method; type: functional
Escherichia coli [28] = assay: Antimicrobial activity against New Delhi metallo-beta lactamase-1 producing Escherichia coli 50676002 assessed as reduction in bacterial growth incubated for 48 hrs by microdilution method; type: functional
Staphylococcus aureus [29] = assay: Antimicrobial activity against extended spectrum-lactamase-carbapenemas producing Staphylococcus aureus strain IHT 99040 assessed as reduction in bacterial growth incubated for 48 hrs by microdilution method; type: functional
Staphylococcus aureus [30] = assay: Antimicrobial activity against Staphylococcus aureus ATCC 9144 assessed as reduction in bacterial growth incubated for 48 hrs by microdilution susceptibility test; type: functional
Enterococcus faecium [31] = assay: Antimicrobial activity against extended spectrum-lactamase-carbapenemas producing Enterococcus faecium strain 50673722 assessed as reduction in bacterial growth incubated for 48 hrs by microdilution method; type: functional
Escherichia coli [32] = assay: Antimicrobial activity against verona integron-encoded metallo-beta-lactamase-29-producing Escherichia coli 50639799 assessed as reduction in bacterial growth incubated for 48 hrs by microdilution method; type: functional
Acinetobacter baumannii [33] = assay: Antimicrobial activity against oxacillinase-23 producing Acinetobacter baumannii K47-42 assessed as reduction in bacterial growth incubated for 48 hrs by microdilution method; type: functional
Enterococcus faecium [34] = assay: Antimicrobial activity against extended spectrum-lactamase-carbapenemas producing Enterococcus faecium strain K36-18 assessed as reduction in bacterial growth incubated for 48 hrs by microdilution method; type: functional
[35] = Hemolytic activity in human erythrocytes incubated for 1 hr by microplate reader; type: functional, cell-based; conditions: erythrocyte
[36] = Antimicrobial activity against New Delhi metallo-beta lactamase-1 Klebsiella pneumoniae K66-45 assessed as reduction in bacterial growth incubated for 48 hrs by microdilution method; type: functional
Staphylococcus aureus [37] = assay: Antimicrobial activity against extended spectrum-lactamase-carbapenemas producing Staphylococcus aureus N315 assessed as reduction in bacterial growth incubated for 48 hrs by microdilution method; type: functional
Escherichia coli [38] = assay: Antibacterial activity against in Escherichia coli HB101 assessed as decrease in bacterial viability at 3.1 ug/ml by cell viability assay; type: functional, organism-based; conditions: dose 3.1 µg/ml
MRC5 = assay: Cytotoxicity against human MRC5 cells assessed as reduction in cell viability incubated for 24 hrs by colorimetric tetrazolium assay; type: functional, cell-based; conditions: MRC5, 24 h
Pseudomonas aeruginosa [39] = assay: Antimicrobial activity against verona integron-encoded metallo-beta-lactamase-4 producing Pseudomonas aeruginosa K34-73 assessed as reduction in bacterial growth incubated for 48 hrs by microdilution method; type: functional
Pseudomonas aeruginosa [40] = assay: Antimicrobial activity against verona integron-encoded metallo-beta-lactamase producing Pseudomonas aeruginosa 50692520 assessed as reduction in bacterial growth incubated for 48 hrs by microdilution method; type: functional
Pseudomonas aeruginosa [41] = assay: Antimicrobial activity against New Delhi metallo-beta lactamase-1 producing Pseudomonas aeruginosa 50692172 assessed as reduction in bacterial growth incubated for 48 hrs by microdilution method; type: functional
Escherichia coli [42] = assay: Antibacterial activity against Escherichia coli EC106-09 infected in mouse peritonitis model assessed as reduction in colony forming unit at 1.4 mg/kg, ip treatment repeated after 3 hrs relative to control; type: functional
[43] = Toxicity in ip dosed mouse assessed as maximum tolerated dose; type: organism-based; conditions: in vivo
Streptococcus pneumoniae [44] = assay: Antibacterial activity against Klebsiella pneumoniae KP3010 infected in mouse peritonitis model assessed as reduction in colony forming unit at 1.4 mg/kg, ip relative to control; type: functional
Escherichia coli [45] = assay: Antibacterial activity against Escherichia coli EC106-09 infected in mouse peritonitis model assessed as reduction in colony forming unit at 1.4 mg/kg, ip relative to control; type: functional
Mus musculus = assay: Toxicity in mouse assessed as tolerability at 2.8 to 3.6 mg/kg, ip; type: organism-based; conditions: in vivo, dose 2.8-3.6 mg/kg
Streptococcus pneumoniae [46] = assay: Antibacterial activity against Klebsiella pneumoniae KP3010 infected in mouse peritonitis model assessed as reduction in colony forming unit at 1.4 mg/kg, ip treatment repeated after 3 hrs relative to control; type: functional

Compound: NCCCCN1C(=O)N(CCCCN)C(=O)C(Cc2cc(Br)cc(Br)c2)(Cc2cc(Br)cc(Br)c2)C1=O.O=C(O)C(F)(F)F.O=C(O)C(F)(F)F
- MIC (Escherichia coli [1]): 8 µg/mL
- MIC [2]: 16 µg/mL
- MIC (Enterococcus faecium [3]): 4 µg/mL
- MIC (Acinetobacter baumannii [4]): 16 µg/mL
- Activity (Escherichia coli [5]): Active
- Activity (Escherichia coli [6]): Active
- MIC (Enterococcus faecium [7]): 4 µg/mL
- MIC (Acinetobacter baumannii [8]): 16 µg/mL
- MIC (Escherichia coli [9]): 8 µg/mL
- MIC (Staphylococcus aureus [10]): 4 µg/mL
- MIC [11]: 16 µg/mL
- MIC (Pseudomonas aeruginosa [12]): 8 µg/mL
- MIC (Escherichia coli [13]): 8 µg/mL
- MIC (Acinetobacter baumannii [14]): 16 µg/mL
- MIC (Enterococcus faecium [15]): 4 µg/mL
- MIC (Pseudomonas aeruginosa [16]): 16 µg/mL
- MIC [17]: 1 µg/mL
- MIC (Pseudomonas aeruginosa [18]): 16 µg/mL
- MIC (Escherichia coli [19]): 4 µg/mL
- MIC (Staphylococcus aureus [20]): 4 µg/mL
- Activity (Streptococcus pneumoniae [21]): Active
- MIC (Staphylococcus aureus [22]): 4 µg/mL
- MIC [23]: 8 µg/mL
- MIC [24]: 16 µg/mL
- Activity (Streptococcus pneumoniae [25]): Active
- IC50 (HepG2): 4 µg/mL
- Activity (Escherichia coli [26]): Active
- MIC (Acinetobacter baumannii [27]): 16 µg/mL
- MIC (Escherichia coli [28]): 8 µg/mL
- MIC (Staphylococcus aureus [29]): 4 µg/mL
- MIC (Staphylococcus aureus [30]): 4 µg/mL
- MIC (Enterococcus faecium [31]): 4 µg/mL
- MIC (Escherichia coli [32]): 8 µg/mL
- MIC (Acinetobacter baumannii [33]): 16 µg/mL
- MIC (Enterococcus faecium [34]): 8 µg/mL
- EC50 [35]: 79 µg/mL
- MIC [36]: 16 µg/mL
- MIC (Staphylococcus aureus [37]): 4 µg/mL
- Activity (Escherichia coli [38]): Active
- IC50 (MRC5): 2 µg/mL
- MIC (Pseudomonas aeruginosa [39]): 16 µg/mL
- MIC (Pseudomonas aeruginosa [40]): 16 µg/mL
- MIC (Pseudomonas aeruginosa [41]): 16 µg/mL

Compound: N=C(N)NCCCCN1C(=O)N(CCCCNC(=N)N)C(=O)C(Cc2cc(Br)cc(Br)c2)(Cc2cc(Br)cc(Br)c2)C1=O.O=C(O)C(F)(F)F.O=C(O)C(F)(F)F
- MIC (Escherichia coli [1]): 4 µg/mL
- inhibition in vivo at 1.4 mg/kg (Escherichia coli [42]): 97%
- MIC [2]: 4 µg/mL
- MIC (Enterococcus faecium [3]): 4 µg/mL
- MTD [43]: 7 mg/kg
- MIC (Acinetobacter baumannii [4]): 8 µg/mL
- Activity (Escherichia coli [5]): Active
- Activity (Escherichia coli [6]): Active
- MIC (Enterococcus faecium [7]): 2 µg/mL
- inhibition in vivo at 1.4 mg/kg (Streptococcus pneumoniae [44]): 98%
- MIC (Acinetobacter baumannii [8]): 4 µg/mL
- MIC (Escherichia coli [9]): 4 µg/mL
- MIC (Staphylococcus aureus [10]): 2 µg/mL
- MIC [11]: 4 µg/mL
- MIC (Pseudomonas aeruginosa [12]): 4 µg/mL
- MIC (Escherichia coli [13]): 4 µg/mL
- MIC (Acinetobacter baumannii [14]): 4 µg/mL
- MIC (Enterococcus faecium [15]): 2 µg/mL
- MIC (Pseudomonas aeruginosa [16]): 8 µg/mL
- MIC [17]: 0.25 µg/mL
- MIC (Pseudomonas aeruginosa [18]): 8 µg/mL
- MIC (Escherichia coli [19]): 2 µg/mL
- MIC (Staphylococcus aureus [20]): 2 µg/mL
- Activity (Streptococcus pneumoniae [21]): Active
- inhibition in vivo at 1.4 mg/kg (Escherichia coli [45]): 90%
- MIC (Staphylococcus aureus [22]): 2 µg/mL
- MIC [23]: 4 µg/mL
- MIC [24]: 4 µg/mL
- Activity (Streptococcus pneumoniae [25]): Active
- IC50 (HepG2): 30 µg/mL
- Activity (Escherichia coli [26]): Active
- MIC (Acinetobacter baumannii [27]): 4 µg/mL
- MIC (Escherichia coli [28]): 4 µg/mL
- MIC (Staphylococcus aureus [29]): 2 µg/mL
- Activity (Mus musculus): Non-Toxic
- MIC (Staphylococcus aureus [30]): 1 µg/mL
- MIC (Enterococcus faecium [31]): 4 µg/mL
- MIC (Escherichia coli [32]): 4 µg/mL
- MIC (Acinetobacter baumannii [33]): 4 µg/mL
- MIC (Enterococcus faecium [34]): 4 µg/mL
- EC50 [35]: 62 µg/mL
- MIC [36]: 4 µg/mL
- MIC (Staphylococcus aureus [37]): 2 µg/mL
- Activity (Escherichia coli [38]): Active
- inhibition in vivo at 1.4 mg/kg (Streptococcus pneumoniae [46]): 97%
- IC50 (MRC5): 11 µg/mL
- MIC (Pseudomonas aeruginosa [39]): 8 µg/mL
- MIC (Pseudomonas aeruginosa [40]): 16 µg/mL
- MIC (Pseudomonas aeruginosa [41]): 8 µg/mL
